Reference: PubChem BioAssay (NCI)
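Five concentrations, 48 hours, 96-well plates. Abbreviation: GI50, concentration required for 50% inhibition of growth. TGI is the concentration that stops growth completely.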

How the values were obtained:
Test in all cases: DTP human tumour cell line panel, 48 h
NCI-H23 lung = system: NCI-H23 lung
DU-145 prostate = system: DU-145 prostate
CCRF-CEM leukemia = system: CCRF-CEM leukemia
PC-3 prostate = system: PC-3 prostate
HS 578T breast = system: HS 578T breast
T-47D breast = system: T-47D breast

Compound	GI50 (NCI-H23 lung)	TGI (NCI-H23 lung)	GI50 (DU-145 prostate)	TGI (DU-145 prostate)	GI50 (CCRF-CEM leukemia)	TGI (CCRF-CEM leukemia)	GI50 (PC-3 prostate)	TGI (PC-3 prostate)	GI50 (HS 578T breast)	TGI (HS 578T breast)	GI50 (T-47D breast)	TGI (T-47D breast)
O=[N+]([O-])c1ccc(N/N=C\c2cc(Cl)ccc2O)nc1	0.541 µM	9 µM	1.22 µM	13.1 µM	0.386 µM	> 100 µM	0.747 µM	55.6 µM	7.33 µM	> 100 µM	2.86 µM	> 100 µM
ClC(=Nc1cccc2ccccc12)N(c1ccccc1)c1ccccc1	–	> 100 µM	–	> 100 µM	–	–	–	> 100 µM	–	> 100 µM	–	> 100 µM
O=c1c(Cl)nnc2sc3ccccc3n12	25.2 µM	> 100 µM	57 µM	> 100 µM	–	–	47.8 µM	> 100 µM	85.4 µM	> 100 µM	–	–
CC1(C)CC(=O)C2=C(C1)NC(SSC1=C(C#N)C(c3ccccc3)C3=C(CC(C)(C)CC3=O)N1)=C(C#N)C2c1ccccc1 (stereo unspecified)	27.7 µg/mL	50.9 µg/mL	44.7 µg/mL	126 µg/mL	24.6 µg/mL	> 150 µg/mL	26.1 µg/mL	47.5 µg/mL	30.5 µg/mL	68.1 µg/mL	30.7 µg/mL	62.4 µg/mL
CC(=O)c1ccc(Nc2cc(-n3ccnc3)nc3ccccc23)cc1	49.6 µM	> 100 µM	> 100 µM	> 100 µM	–	–	20.5 µM	> 100 µM	33.4 µM	> 100 µM	> 100 µM	> 100 µM
Cc1ccc2c(c1)NC(c1ccc(C(=O)O)cc1)c1cccn1-2 (stereo unspecified)	–	> 100 µM	–	71.4 µM	–	> 100 µM	–	> 100 µM	–	–	–	49.2 µM
COc1cc[nH]c1/C=C1\C(=O)Nc2ccc(F)c(C#C[C@@H](O)[C@@H](N)[C@@H](C)O)c21	0.649 µM	3.33 µM	0.529 µM	3.5 µM	0.709 µM	2.35 µM	0.369 µM	1.6 µM	0.381 µM	1.68 µM	0.993 µM	6.07 µM
O=[N+]([O-])c1ccc(Sc2ncccn2)c([N+](=O)[O-])c1	5.28 µM	19.1 µM	3.71 µM	12.7 µM	2.04 µM	5.5 µM	2.13 µM	15.1 µM	3.83 µM	18 µM	3.01 µM	15 µM
O=C1CC(=O)N(C2CCCCC2)C(=O)N1c1ccccc1S(=O)(=O)Oc1ccccc1	–	–	–	> 100 µM	–	54.5 µM	–	> 100 µM	–	–	–	> 100 µM
O/N=C1\CCc2cc(-c3nc(C4CCNCC4)[nH]c3-c3ccncc3)ccc21	> 25 µM	> 25 µM	> 25 µM	> 25 µM	> 25 µM	> 25 µM	> 25 µM	> 25 µM	> 25 µM	> 25 µM	> 25 µM	> 25 µM
CCCCOC(=O)C(=O)C(CC(C(=O)Cc1ccccc1)c1ccccc1)C(=O)C=C(C)C (stereo unspecified)	–	> 100 µM	–	> 100 µM	–	> 100 µM	–	> 100 µM	–	> 100 µM	–	–
COc1cc(O)c(C(=O)/C=C/c2ccccc2)c(OC)c1	–	19.4 µM	–	21 µM	–	7.22 µM	–	–	–	18.2 µM	–	24.6 µM
COc1cc2c3c(n(C)c(=O)c2cc1OC)-c1cc2c(cc1/C3=C\CCCCN)OCO2	3.84 µM	15.3 µM	10.5 µM	31.4 µM	–	–	20 µM	62.1 µM	–	–	37.7 µM	> 100 µM
COc1ccc(/C(=C/c2cc(OC)c(OC)c(OC)c2)[N+](=O)[O-])cc1	2.02 µM	4.64 µM	1.75 µM	3.14 µM	–	–	1.95 µM	3.88 µM	3.21 µM	21.4 µM	1.65 µM	10.3 µM
O=C1c2ccccc2-c2c1c1ccccc1c(=O)n2CCO	–	> 61.9 µM	–	> 100 µM	–	> 100 µM	–	> 100 µM	–	> 100 µM	–	> 100 µM
OB([O][Hg][c]1ccccc1)[O][Hg][c]1ccccc1	0.784 µM	2.17 µM	0.873 µM	2.29 µM	–	–	0.758 µM	2.42 µM	–	–	–	–
COC(=O)Nc1nc2ccc(C(=O)c3ccc[nH]3)cc2[nH]1	–	> 100 µM	–	> 23.2 µM	–	12.7 µM	–	–	–	> 100 µM	–	> 100 µM
Cc1ccc(-c2c(C#N)c(N)nc(N3CCOCC3)c2C#N)o1	–	–	43.5 µM	> 100 µM	36.2 µM	> 100 µM	30.6 µM	> 100 µM	39.2 µM	> 100 µM	–	–
COc1cc(-c2cc(C(=O)N3CCN(C(=O)c4ccccc4NCc4ccco4)CC3)nc3cc(-c4ccccc4)nn23)cc(OC)c1OC	5.5 µM	> 100 µM	–	–	4.57 µM	> 100 µM	2.2 µM	> 100 µM	3.1 µM	> 29.3 µM	2.94 µM	> 100 µM
O=C(Nc1ccncc1)C(=O)c1cn(S(=O)(=O)c2ccc(Br)cc2)c2ccccc12	4.74 µM	> 100 µM	19 µM	> 100 µM	7.67 µM	> 100 µM	8.87 µM	> 100 µM	> 100 µM	> 100 µM	7.74 µM	> 100 µM
COc1cc2cc(Oc3ccc(NC(=O)Nc4cccc(C(F)(F)F)c4)cc3)c(C)nc2cc1OCCN1CCCCC1	1.7 µM	3.26 µM	1.68 µM	3.06 µM	–	–	1.41 µM	2.77 µM	–	–	–	–
Cc1ccc(S(=O)(=O)N/N=C/C(Br)=C(/Br)C(=O)O)cc1	–	15.2 µM	–	26.9 µM	–	9.67 µM	–	29.3 µM	–	45.2 µM	–	23.3 µM
COC(=O)[C@]12CC[C@@H](C)[C@H](C)[C@@H]1C1=CC[C@@H]3[C@@]4(C)CC(=O)[C@H](O)[C@@]5(C)COC(=C45)C[C@@]3(C)[C@]1(C)CC2	17.5 µM	35.7 µM	18.7 µM	35.1 µM	19.7 µM	43.5 µM	16.9 µM	33.8 µM	18.4 µM	45 µM	18.4 µM	38.8 µM
CC12OC(C(=O)C13CC3)C1C(=O)c3ccccc3C(=O)C12 (stereo unspecified)	29.5 µM	> 100 µM	–	–	13.9 µM	42.5 µM	19.8 µM	52.9 µM	22.6 µM	63.9 µM	24.4 µM	> 100 µM
C1=CN2C[n+]3cccc(OCc4ccccc4)c3N=C2C(OCc2ccccc2)=C1	–	39.9 µM	–	> 100 µM	–	–	–	> 100 µM	–	21.5 µM	–	> 100 µM
